Results taken from ChEMBL document CHEMBL1201862, “PubChem BioAssay data set” (2004).
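Where inhibition never reached the appropriate level, the endpoint shown equals the highest concentration tested. Otherwise, values were interpolated linearly from a five-concentration, 48-hour dose response in 96-well plates. GI50 = concentration required for 50% inhibition of growth.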 Activity calls are given as the source filed them. Cut-off read from the data, not from the text of the source: active = GI50 up to about 1.1 µM and inactive = higher.

What was measured:
Test in all cases: NCI anticancer screen, dose series, 48 h
ACHN = test system: ACHN
A549 = test system: A549
COLO 205 = test system: COLO 205
HOP-62 = test system: HOP-62
SF-295 = test system: SF-295
SW-620 = test system: SW-620
K562 = test system: K562
SK-MEL-5 = test system: SK-MEL-5
LXFL 529 = test system: LXFL 529
SK-MEL-28 = test system: SK-MEL-28
TK-10 = test system: TK-10
HT-29 = test system: HT-29
OVCAR-5 = test system: OVCAR-5
RPMI-8226 = test system: RPMI-8226
HOP-92 = test system: HOP-92
MDA-MB-435 = test system: MDA-MB-435
SNB-75 = test system: SNB-75
MDA-N = test system: MDA-N
MDA-MB-231 = test system: MDA-MB-231
T47D = test system: T47D

## C=C1Cc2cc(OC)c(OC)c(OC)c2-c2ccc(SC)c(=O)cc21
ACHN
  GI50: < 0.01 µM (active)
A549
  GI50: < 0.01 µM (active)
COLO 205
  GI50: < 0.01 µM (active)
HOP-62
  GI50: < 0.01 µM (active)
SF-295
  GI50: < 0.01 µM (active)
SW-620
  GI50: < 0.01 µM (active)
K562
  GI50: < 0.01 µM (active)
SK-MEL-5
  GI50: < 0.01 µM (active)
LXFL 529
  GI50: < 0.01 µM (active)
SK-MEL-28
  GI50: < 0.01 µM (active)
TK-10
  GI50: 0.916 µM (active)
HT-29
  GI50: < 0.01 µM (active)
OVCAR-5
  GI50: 0.378 µM (active)
RPMI-8226
  GI50: < 0.01 µM (active)

## N/N=C1\C(=O)N(Cc2ccccc2)C(=O)C1C(=O)NCc1ccccc1 (stereo unspecified)
ACHN
  GI50: > 100 µM (inactive)
A549
  GI50: > 100 µM (inactive)
COLO 205
  GI50: > 100 µM (inactive)
HOP-62
  GI50: > 100 µM (inactive)
SF-295
  GI50: > 100 µM (inactive)
HOP-92
  GI50: > 100 µM (inactive)
SW-620
  GI50: > 100 µM (inactive)
K562
  GI50: > 100 µM (inactive)
SK-MEL-5
  GI50: > 100 µM (inactive)
LXFL 529
  GI50: > 100 µM (inactive)
SK-MEL-28
  GI50: > 100 µM (inactive)
TK-10
  GI50: > 100 µM (inactive)
HT-29
  GI50: > 100 µM (inactive)
OVCAR-5
  GI50: > 100 µM (inactive)
RPMI-8226
  GI50: > 100 µM (inactive)

## O=[N+]([O-])c1cccc(C2SCc3nc4ccccc4n32)c1 (stereo unspecified)
ACHN
  GI50: 62.7 µM (inactive)
A549
  GI50: > 100 µM (inactive)
COLO 205
  GI50: > 100 µM (inactive)
HOP-62
  GI50: > 100 µM (inactive)
SF-295
  GI50: 73.5 µM (inactive)
HOP-92
  GI50: 19 µM (inactive)
SW-620
  GI50: > 100 µM (inactive)
K562
  GI50: 49.5 µM (inactive)
SK-MEL-5
  GI50: 19.6 µM (inactive)
LXFL 529
  GI50: 55.8 µM (inactive)
SK-MEL-28
  GI50: > 100 µM (inactive)
TK-10
  GI50: > 100 µM (inactive)
HT-29
  GI50: > 100 µM (inactive)
OVCAR-5
  GI50: 39.3 µM (inactive)

## Cc1cccc(CC(C)(C)C)c1NC(=O)C(=O)C(C(=O)c1ccc2ccccc2c1)C1OC(=O)c2ccccc21 (stereo unspecified)
ACHN
  GI50: 18 µM (inactive)
A549
  GI50: 12.4 µM (inactive)
COLO 205
  GI50: 15.4 µM (inactive)
HOP-62
  GI50: 15.4 µM (inactive)
SF-295
  GI50: 4.55 µM (inactive)
HOP-92
  GI50: 1.14 µM (inactive)
SW-620
  GI50: 6.78 µM (inactive)
SK-MEL-5
  GI50: 13.1 µM (inactive)
LXFL 529
  GI50: 7.01 µM (inactive)
SK-MEL-28
  GI50: 5.58 µM (inactive)
HT-29
  GI50: 20.2 µM (inactive)
OVCAR-5
  GI50: 15.2 µM (inactive)
RPMI-8226
  GI50: 10.1 µM (inactive)

## O=C(NCc1cccnc1)C(=O)NCc1cccnc1
ACHN
  GI50: > 100 µM (inactive)
A549
  GI50: > 100 µM (inactive)
COLO 205
  GI50: > 100 µM (inactive)
HOP-62
  GI50: > 100 µM (inactive)
MDA-MB-435
  GI50: > 100 µM (inactive)
SF-295
  GI50: > 100 µM (inactive)
HOP-92
  GI50: > 100 µM (inactive)
SW-620
  GI50: > 100 µM (inactive)
SNB-75
  GI50: > 100 µM (inactive)
K562
  GI50: > 100 µM (inactive)
MDA-N
  GI50: > 100 µM (inactive)
SK-MEL-5
  GI50: > 100 µM (inactive)
SK-MEL-28
  GI50: > 100 µM (inactive)
MDA-MB-231
  GI50: > 100 µM (inactive)
TK-10
  GI50: > 100 µM (inactive)
T47D
  GI50: > 100 µM (inactive)
HT-29
  GI50: > 100 µM (inactive)
OVCAR-5
  GI50: > 100 µM (inactive)
RPMI-8226
  GI50: > 100 µM (inactive)

## Cc1cccc(C(=O)O)c1C(=O)c1cccc2ccccc12
ACHN
  GI50: > 100 µM (inactive)
A549
  GI50: > 100 µM (inactive)
COLO 205
  GI50: > 100 µM (inactive)
HOP-62
  GI50: > 100 µM (inactive)
SF-295
  GI50: > 100 µM (inactive)
SW-620
  GI50: > 100 µM (inactive)
SNB-75
  GI50: > 100 µM (inactive)
K562
  GI50: 65 µM (inactive)
SK-MEL-5
  GI50: > 100 µM (inactive)
LXFL 529
  GI50: > 100 µM (inactive)
SK-MEL-28
  GI50: > 100 µM (inactive)
TK-10
  GI50: > 100 µM (inactive)
HT-29
  GI50: > 100 µM (inactive)
OVCAR-5
  GI50: > 100 µM (inactive)

## COc1cccc(-c2cc(O)c3cc(OC)c(OC)cc3n2)c1
ACHN
  GI50: > 100 µM (inactive)
A549
  GI50: 47.4 µM (inactive)
COLO 205
  GI50: 39.3 µM (inactive)
HOP-62
  GI50: 42.1 µM (inactive)
SW-620
  GI50: 32 µM (inactive)
SNB-75
  GI50: 34.8 µM (inactive)
K562
  GI50: 40.3 µM (inactive)
LXFL 529
  GI50: 63.1 µM (inactive)
SK-MEL-28
  GI50: > 100 µM (inactive)
TK-10
  GI50: 51.6 µM (inactive)
HT-29
  GI50: 20.1 µM (inactive)
RPMI-8226
  GI50: 45.3 µM (inactive)

## CC(Oc1ccc(OCC2CCCCC2)cc1)C(=O)OCC(=O)c1ccc(-c2ccccc2)cc1 (stereo unspecified)
ACHN
  GI50: > 100 µM (inactive)
A549
  GI50: > 100 µM (inactive)
SF-295
  GI50: > 100 µM (inactive)
SNB-75
  GI50: > 100 µM (inactive)
K562
  GI50: > 100 µM (inactive)
SK-MEL-5
  GI50: > 100 µM (inactive)
LXFL 529
  GI50: > 100 µM (inactive)
SK-MEL-28
  GI50: > 100 µM (inactive)
TK-10
  GI50: > 100 µM (inactive)
HT-29
  GI50: > 100 µM (inactive)
